Where “and” joins values, the source holds several entries; their conditions need not be identical. Equal values may be shown once. Entries after “also recorded” stand apart in the source; their conditions may differ.
What was measured:
HSV-2 [1] = experiment: CPE trial on HSV-2 (Examples 15-16); format: cell-based, Herpes simplex virus type II
HSV-1 [2] = experiment: CPE trial on HSV-1 (Examples 15-16); format: cell-based, Herpes simplex virus type I; settings: in words
Adenovirus type 4 = experiment: CPE trial on Adenovirus type 4 using KB cells (Example 17); format: cell-based
HSV-1 [3] = experiment: Plaque assay, HSV-1 (Examples 8-11); format: cell-based, Herpes simplex virus type I
HSV-2 [4] = experiment: Plaque assay, HSV-2 (Examples 5-7); format: cell-based, Herpes simplex virus type II
Polio 1 = format: cell-based; settings: in words; CPE trial
Echo 5 = experiment: CPE trial on Echo 5 (Examples 12-14); format: cell-based; settings: in words
[5] = tested on: Herpes simplex virus type 1 (HSV-1); experiment: Neutralization of viral cytopathogenic effect (CPE) on BGM cells, HSV-1 (Example 3); format: cell-based
Method: (§1) Evaluation of the compound is made using a simple neutralization of viral cytopathogenic effect (CPE) on Buffalo Green Monkey (BGM) cells using two tubes for each dilution of virus. […] In order to evaluate zinc oxyacetate, the compound (or the compound in equal weight admixture with lauryl alcohol) is incubated for 1 hour with the virus prior to making ten-fold serialdilutions and innoculating the BGM tubes. The amount of virus used is 0.1 ml. The amount of test material used is 0.1 ml of a solution containing 0.1% of Tween 80 and 0.1% of the test material.

Bread mold = experiment: Disc growth inhibition of bread mold on nutrient plate (Example 2); format: cell-based
Method: (§2) A stock (1%) solution is prepared by dissolving 0.1 gm of zinc ocyacetate in 10 ml of water. A 1/2 dilution (0.5% solution) is made by admixing 5 ml of the stock solution and 5 ml of water. A 1/4 dilution (0.25% solution) is made by admixing 5 ml of the 0.5% solution and 5 ml of water. A 1/10 dilution (0.1% solution) is made by admixing 1 ml of the stock (1%) solution and 9 ml of water. Fine filter paper discs of 1 cm diameter are placed in each of four clean petri dishes. In dish #1, 0.1 ml of the 1% solution is dropped onto each filter disc and allowed to air dry. The same is done in dish #2 except that the 0.5% solution is used. The same is done on dishes #3 and #4 except that the 0.25 and 0.1% solutions, respectively,are used. One ml of a previously prepared 1×10^-4 dilution of a broth bacterial culture (Staphylococcus aureus) is then spread evenly over the entire surface of four agar plates. At the 12 o'clock position on each of the agar plates, a disc from dish #1 (1% solution) is placed. Discs from dishes #2, #3 and #4 are similarly placed at the 3 o'clock, 6 o'clock, and 9 o'clock positions, respectively, of each of the four plates. Each disc is gently pressed to enure good contact with the agar surface. For comparison purposes, a further stock solution of zinc sulphate (1%) is made up and an identical series of tests made. Each plate is incubated overnight at 37° C. and the area of inhibition--the clear area around each disc--is measured. Bread mold is innoculated on a nutrient plate.

HSV-2 [6] = experiment: Neutralization of viral cytopathogenic effect (CPE) on BGM cells, HSV-2 (Example 3); format: cell-based, Herpes simplex virus type II
Method: as §1

Candida albicans = experiment: Inhibition of molds, size of cleared area (Example 4); format: cell-based; settings: 0.1 ml of a 1% solution containing 0.1% Tween 80
Method: (§3) Bread mold is innoculated on a nutrient plate.
(§4) In a test similar to that of Example 2, zinc oxyacetate is tested for inhibition of four bread molds. The amount of zinc oxyacetate is 0.1 ml of a 1% solution containing 0.1% Tween 80. The amount of mold is 0.1 ml.

Microsporum canis = experiment: as above; format: cell-based; settings: 0.1 ml of a 1% solution containing 0.1% Tween 80
Method: as §3, §4

[7] = tested on: Trichophyton mentagrophytes; experiment: as above; format: cell-based; settings: 0.1 ml of a 1% solution containing 0.1% Tween 80
Method: as §3, §4

Trichophyton rubrum = experiment: as above; format: cell-based; settings: 0.1 ml of a 1% solution containing 0.1% Tween 80
Method: as §3, §4

Staphylococcus aureus [8] = experiment: Filter paper disc bacterial inhibition test on agar plates (Example 1); format: cell-based; settings: for Clear Area, Average: average of plates 1-4; for Clear Area: single plate, overnight at 37° C.
Method: as §2, with “measured.” for “measured. Bread mold is innoculated on a nutrient plate.”

Staphylococcus aureus [9] = experiment: as above; format: cell-based; settings: .01% solution (as headed); for Clear Area, Average: average of plates 1-4; for Clear Area: single plate, overnight at 37° C., -- counted as zero in the average
[10] = Visible precipitate under sensitivity disc (Example 1); format: physicochemical; settings: 1% and 0.50% concentration
Method: as §2, with “For comparison purposes, a further stock solution of zinc sulphate (1%) is made up and an identical series of tests made.” left out, “measured.” for “measured. Bread mold is innoculated on a nutrient plate.”

## CC(=O)[O-].CC(=O)[O-].CC(=O)[O-].CC(=O)[O-].CC(=O)[O-].CC(=O)[O-].[Mn+2].[Mn+2].[Mn+2].[Mn+2].[O-2] [Manganese compound, Magnanese oxyacetate]
HSV-2 [1]; 10^-1 dilution of HSV-2
  size of the BGM cells: increase in the size of the BGM cells
HSV-2 [1]; 10^-1 dilution of HSV-2, BGM cells
  inhibition of HSV-2: inhibit the virus completely
HSV-2 [1]; 10^-2 and 10^-3 dilution, one tube in each dilution, later typical syncytial formation
  inhibition of HSV-2: early inhibition of virus
HSV-2 [1]; BGM cells, control 10^-2.5
  CPE result (titer column), HSV-2: Inhibition
HSV-2 [1]; in words, CPE trial
  effectiveness against HSV-2: effective against HSV-2
  type of action against HSV-2 (viristatic / viricidal): apparent viristatic action
HSV-1 [2]
  effectiveness against HSV-1: probably not effective against HSV-1
Adenovirus type 4; in all cases
  titer, Adenovirus type 4: 10^-3
Adenovirus type 4; in words
  effectiveness in inhibiting the CPE of Adenovirus type 4: neither the test compound nor Zn carrier are effective
HSV-1 [3]; HSV-1 10^-2 (Example 8), 0% methylcellulose overlay, control TNC (too numerous to count)
  plaque assay result, HSV-1: 90
HSV-1 [3]; HSV-1 10^-2 (Example 8), 1.5% methylcellulose overlay, control ND, Irr = irregular results, TNC = too numerous to count
  plaque assay result, HSV-1: Irr
HSV-1 [3]; HSV-1 10^-2 (Example 8), 2% methylcellulose overlay, control ND, Irr = irregular results, TNC = too numerous to count
  plaque assay result, HSV-1: Irr
HSV-1 [3]; HSV-1 10^-3 (Example 9), 0% methylcellulose overlay, control 34
  plaque assay result, HSV-1: 11
HSV-1 [3]; HSV-1 10^-3 (Example 9), 1.5% methylcellulose overlay, control TNC
  plaque assay result, HSV-1: 45
HSV-1 [3]; HSV-1 10^-3 (Example 9), 2% methylcellulose overlay, control 115
  plaque assay result, HSV-1: 46
HSV-1 [3]; HSV-1 10^-4 (Example 10), 0% methylcellulose overlay, control 6
  plaque assay result, HSV-1: 4
HSV-1 [3]; HSV-1 10^-4 (Example 10), 1.5% methylcellulose overlay, control 38
  plaque assay result, HSV-1: 5
HSV-1 [3]; HSV-1 10^-4 (Example 10), 2% methylcellulose overlay, control 10
  plaque assay result, HSV-1: 5
HSV-1 [3]; HSV-1 10^-5 (Example 11), 0% methylcellulose overlay, control 5
  plaque assay result, HSV-1: 0
HSV-1 [3]; HSV-1 10^-5 (Example 11), 1.5% methylcellulose overlay, control 3
  plaque assay result, HSV-1: 0
HSV-1 [3]; HSV-1 10^-5 (Example 11), 2% methylcellulose overlay, control 3
  plaque assay result, HSV-1: 0
HSV-2 [4]; HSV-2 10^-1 (Example 5), control ND
  plaque assay result, HSV-2: Toxic
HSV-2 [4]; HSV-2 10^-2 (Example 6), control 39
  plaque assay result, HSV-2: 4
HSV-2 [4]; HSV-2 10^-3 (Example 7), control 5
  plaque assay result, HSV-2: 0
HSV-2 [4]; in words
  inhibition of HSV-2 (plaque assay): less effective than the zinc composition; also recorded: both substances inhibited HSV-2
Polio 1
  effectiveness against Polio 1: not effective
Solubility in 2% FBS-MEM
  solubility (in words): readily soluble
Echo 5
  effectiveness against Echo 5: not effective

## CC(=O)O.CC(=O)O.CC(=O)O.CC(=O)O.CC(=O)O.CC(=O)O.[O-2].[Zn+2].[Zn+2].[Zn+2].[Zn+2] [Zinc oxyacetate, zibnc, hexakis(acetato) oxotetra]
[5]; BGM cells, 1 hour preincubation with virus, 0.1% test material, 0.1% Tween 80, control 10^-4
  Titer based on 4+(100%) CPE, HSV-1: 10^-3
[5]; in words, HSV-1, BGM cells
  effectiveness in inhibiting the virus: effective in inhibiting the virus
[5]; titer reduction versus control
  log inhibition, HSV-1: 1 log
Bread mold; 1% solution
  growth inhibition of bread mold: good growth inhibition
Bread mold; less concentrated solution
  growth inhibition of bread mold: does not noticeably inhibit growth
Bread mold; undiluted material
  growth inhibition of bread mold: good growth inhibition
HSV-2 [6]; BGM cells, 1 hour preincubation with virus, 0.1% test material, 0.1% Tween 80, control 10^-2
  Titer based on 4+(100%) CPE, HSV-2: 0
HSV-2 [6]; in words, HSV-2, BGM cells
  effectiveness in inhibiting the virus: effective in inhibiting the virus
HSV-2 [6]; titer reduction versus control
  log inhibition, HSV-2: 2 log
Candida albicans
  Size of cleared area, Candida albicans: 9 mm
Microsporum canis
  Size of cleared area, Microsporum canis: 8 mm
[7]
  Size of cleared area, Trichophyton mentagrophytes: 9 mm
Trichophyton rubrum
  Size of cleared area, Trichophyton rubrum: 5 mm
Staphylococcus aureus [8]; 1% solution
  Clear Area, Average: 1.82 cm
  Clear Area: 1.85 cm and 1.80 cm and 1.78 cm
Staphylococcus aureus [8]; .25% solution
  Clear Area, Average: 1.37 cm
  Clear Area: 1.32 cm and 1.35 cm and 1.40 cm and 1.42 cm
Staphylococcus aureus [8]; .5% solution
  Clear Area, Average: 1.64 cm
  Clear Area: 1.70 cm and 1.52 cm and 1.61 cm and 1.72 cm
Staphylococcus aureus [8]; in words, versus zinc sulphate
  bacteriostatic qualities: bacteriostatic qualities comparable to those of zinc sulphate
Staphylococcus aureus [9]
  Clear Area, Average: 0.31 cm
  Clear Area: 1.25 cm

## O=S(=O)([O-])[O-].[Zn+2] [Zinc sulphate, zinc sulphate, reference compound]
[10]
  visible precipitate under each sensitivity disc: a visible precipitate formed under each sensitivity disc
Staphylococcus aureus [8]; 1% solution
  Clear Area, Average: 1.66 cm
  Clear Area: 1.80 cm and 1.72 cm and 1.71 cm and 1.42 cm
Staphylococcus aureus [8]; .25% solution
  Clear Area, Average: 1.37 cm
  Clear Area: 1.40 cm and 1.39 cm and 1.31 cm
Staphylococcus aureus [8]; .5% solution
  Clear Area, Average: 1.44 cm
  Clear Area: 1.50 cm and 1.45 cm and 1.41 cm and 1.40 cm
Staphylococcus aureus [9]
  Clear Area, Average: 0.61 cm
  Clear Area: 1.22 cm and 1.21 cm

Reference: patent US4407818A, “Anti viral, anti bacterial and/or anti fungal composition containing metal oxyalkylate” (Bio-Systems Research, Inc., priority 1981, dated 1983)
